Test results published in BigSolDB 2.1.

CC(=O)N1CCN(c2ccc(OC[C@@H]3CO[C@@](Cn4ccnc4)(c4ccc(Cl)cc4Cl)O3)cc2)CC1 (racemic)
solubility (mole fraction)
Settings	in 1,4-dioxane	in NMP	in ethanol	in isopropanol	in propylene glycol	in transcutol
293.2 K	0.00683	0.019	0.00275	0.000773	0.00161	0.0116
298.2 K	0.00833	0.023	0.00358	0.000948	0.00219	0.0136
303.2 K	0.00983	0.0282	0.00434	0.00121	0.00293	0.0159
308.2 K	0.0121	0.0321	0.00561	0.0018	0.00348	0.0189
313.2 K	0.0139	0.0376	0.00649	0.00237	0.00507	0.0212

O=c1[nH]cc(Br)c(=O)[nH]1
Settings	solubility (mole fraction)
in water, 298.15 K	0.000272

O=C(O)c1ccc(C(=O)O)c(C(=O)O)c1
in acetic acid
Settings	solubility (mole fraction)
313.2 K	0.00168
323.2 K	0.00311
333.2 K	0.0048
343.2 K	0.00676
353.2 K	0.0087
363.2 K	0.0106

O=C(O)c1cccc(C(=O)O)c1
in n-propyl acetate
Settings	solubility (mole fraction)
303.2 K	0.000791
313.2 K	0.000934
323.2 K	0.00108
333.2 K	0.00132
343.2 K	0.00138
353.2 K	0.0018
363.2 K	0.00215

Nc1ccc(S(=O)(=O)Nc2ncccn2)cc1
Settings	solubility (mole fraction)
in PEG-400, 298.15 K	0.0129
in PEG-400, 303.15 K	0.0132
in PEG-400, 308.15 K	0.0134
in PEG-400, 313.15 K	0.0136
in PEG-400, 318.15 K	0.0139

solubility (mole fraction)
Settings	293.15 K	298.15 K	303.15 K	308.15 K	313.15 K
in n-propanol	3.88e-05	4.71e-05	5.87e-05	7.21e-05	9.13e-05
in propylene glycol	–	0.00047	–	–	–

CSCC[C@H](N)C(=O)O
in water
Settings	solubility (mole fraction)
283.15 K	0.00531
288.15 K	0.00555
293.15 K	0.00625
298.15 K	0.00681
303.15 K	0.00724
308.15 K	0.00787
313.15 K	0.00837

NC(CO)(CO)CO
in methanol
Settings	solubility (mole fraction)
293.2 K	0.0076
298.2 K	0.0092
303.2 K	0.0106
308.2 K	0.0124
313.2 K	0.0158

c1ccc(-c2cnc(-c3ccccc3)o2)cc1
298.15 K
Settings	solubility (mole fraction)
in acetone	0.29
in ethanol	0.04
in water	1.41e-07

COc1ccc([C@@H]2CC(=O)c3c(O)cc(O[C@@H]4O[C@H](CO[C@@H]5O[C@@H](C)[C@H](O)[C@@H](O)[C@H]5O)[C@@H](O)[C@H](O)[C@H]4O)cc3O2)cc1O
in n-propanol
Settings	solubility (mole fraction)
293.15 K	0.000142
298.15 K	0.000166
303.15 K	0.00019
308.15 K	0.000218
313.15 K	0.000252
318.15 K	0.000289
323.15 K	0.000329
328.15 K	0.000375
333.15 K	0.000425

NCCC(=O)N[C@@H](Cc1cnc[nH]1)C(=O)O
in water
Settings	solubility (mole fraction)
288.15 K	0.0217
293.15 K	0.0224
298.15 K	0.0236
303.15 K	0.0249
308.15 K	0.0265
313.15 K	0.0287
318.15 K	0.0301
323.15 K	0.0324

CC(C)C[C@H](CN)CC(=O)O
in water
Settings	solubility (mole fraction)
283.15 K	0.00349
298.15 K	0.00373
308.15 K	0.00397
315.65 K	0.00447
323.15 K	0.00486
328.15 K	0.00531
338.15 K	0.00641

O=[N+]([O-])c1ccc(N/N=C/c2ccc[nH]2)c([N+](=O)[O-])c1
Settings	solubility (mole fraction)
in water, 298.15 K	1.6e-08

Clc1ccc(-c2c3nc(c(-c4ccc(Cl)cc4)c4ccc([nH]4)c(-c4ccc(Cl)cc4)c4nc(c(-c5ccc(Cl)cc5)c5ccc2[nH]5)C=C4)C=C3)cc1
in ethanol
Settings	solubility (mole fraction)
293.2 K	1.27e-06
303.2 K	1.63e-06
313.2 K	1.93e-06
323.2 K	2.25e-06
333.2 K	2.63e-06

Nc1cc(Cl)nnc1Cl
in ethanol
Settings	solubility (mole fraction)
303.15 K	0.0171
305.65 K	0.0179
308.15 K	0.0185
310.65 K	0.0192
313.15 K	0.0202
315.65 K	0.0212
318.15 K	0.022
320.65 K	0.023
323.15 K	0.024

CC(C)(C)C(=O)OCOP(=O)(COCCn1cnc2c(N)ncnc21)OCOC(=O)C(C)(C)C
298.15 K
Settings	solubility (mole fraction)
in acetone	0.0662
in dichloromethane	0.175
in diisopropyl ether	3.71e-05
in ethanol	0.0341
in ethyl acetate	0.0263
in isopropanol	0.0252

O=C(O)CNCP(=O)(O)O
in water
Settings	solubility (mole fraction)
293.67 K	0.00112
302.65 K	0.0014
311.95 K	0.00174
317.15 K	0.00202
322.15 K	0.00226
327 K	0.0025
332.35 K	0.00285

NCCC(=O)O
in methanol
Settings	solubility (mole fraction)
288.15 K	0.115
293.15 K	0.122
298.15 K	0.131
303.15 K	0.14
308.15 K	0.152
313.15 K	0.164
318.15 K	0.173
323.15 K	0.183

COc1ccc2c(c1)c(CC(=O)O)c(C)n2C(=O)c1ccc(Cl)cc1
in acetone
Settings	solubility (mole fraction)
293 K	0.0183
298 K	0.0208
303 K	0.0236
308 K	0.0273
313 K	0.0316
318 K	0.0365

O=[N+]([O-])c1ccc(N/N=C/c2ccco2)c([N+](=O)[O-])c1
Settings	solubility (mole fraction)
in water, 298.15 K	1.4e-08

c1ccc2c(c1)[nH]c1ccccc12
298.15 K
Settings	solubility (mole fraction)
in 1-chlorooctane	0.00242
in 1-chlorotetradecane	0.0024
in chlorocyclohexane	0.00291
in dibutyl ether	0.00501

O=C(O)c1ccc(-n2nc(-c3ccccc3O)nc2-c2ccccc2O)cc1
298.2 K
Settings	solubility (mole fraction)
in acetonitrile	0.00106
in ethanol	0.0143
in methanol	0.0119
in propylene glycol	0.0195

Cc1ccccc1C(=O)O
in cyclohexane
Settings	solubility (mole fraction)
295.45 K	0.0146
304.95 K	0.0279
316.65 K	0.0515
319.4 K	0.0615
325.2 K	0.0885
329.35 K	0.106
333.45 K	0.138
338.15 K	0.185

C[N+](C)(C)CCOP(=O)([O-])OP(=O)([O-])OC[C@H]1O[C@@H](n2ccc(N)nc2=O)[C@H](O)[C@@H]1O.[Na+]
in water
Settings	solubility (mole fraction)
278.15 K	0.0211
281.15 K	0.0216
285.15 K	0.0224
289.15 K	0.0234
293.15 K	0.0248
298.15 K	0.0265

C[C@@H](O)[C@H]1C(=O)N2C(C(=O)O)=C(S[C@@H]3CN[C@H](C(=O)N(C)C)C3)[C@H](C)[C@H]12.O.O.O
in water
Settings	solubility (mole fraction)
278.15 K	0.000408
283.15 K	0.000445
288.15 K	0.00051
293.15 K	0.000556
298.15 K	0.00066
303.15 K	0.000782

C(=N\Nc1ccccc1)/c1ccc[nH]1
Settings	solubility (mole fraction)
in water, 298.15 K	5.86e-07
